Laboratory results published in patent publication US20090069320A1, “Substituted 4-Amino-Quinazoline Compounds with Metabotropic Glutamate Receptor Regulating Activity and Uses Thereof” (Gruenenthal GmbH, priority 2006, published 2009).

Biological target: T1, mGluR5 receptor (Sus scrofa, UniProt I3LUI7)
T1 construct: 450 μg of protein from brain homogenate with 5 nM ^3[H]-MPEP; from tissue; host or cells: pig brain halves without medulla, cerebellum and pons
Test: [3H]-MPEP mGluR5 receptor binding assay (pig brain homogenate)
Conditions: 10 μM compound, 5 nM [3H]-MPEP, read-out: % Inhibition of mGluR5 Receptor (pig) [^3H]-MPEP Bond at 10 μM
Experimental: I. Method for Determining the Inhibition of the [^3H]-MPEP Bond in the mGluR5 Receptor Binding Assay
Pig brain homogenate is produced by homogenizing (Polytron PT 3000, Kinematica AG, 10 000 rpm for 90 seconds) pig brain halves without medulla, cerebellum and pons in pH 8.0 buffer (20 mM Hepes, Sigma, order no. H3375+1 complete tablet, 100 ml, Roche Diagnostics, order no. 1836145) in the ratio of 1:20 (brain weight/volume) and differential centrifuging at 900×g and 40 000×g. In incubation batches of 250 μl in 96-well microtitre plates 450 μg of protein from brain homogenate with 5 nM ^3[H]-MPEP (Tocris, order no. R1212) (MPEP=[…]) and the compounds to be examined (10 μM in test) in buffer (as above) are respectively incubated at room temperature for 60 minutes.
The batches are then filtered using a Brandel cell harvester (Brandel, Robotic 9600) on unifilter plates with fibreglass filter mats (Perkin Elmer, order no. 6005177) and then washed with buffer (as above) 3-times each with 250 μl per sample. The filter plates are then dried for 60 mins. at 55° C. Then, 30 μL of Ultima Gold™ scintillator (Packard BioScience, order no. 6013159) are added per well and after 3 hours the samples are measured on the β-counter (MicroBeta, Perkin Elmer). The non-specific binding is determined by adding 10 μM of MPEP (Tocris, order no. 1212).

T1 sequence (I3LUI7 19-1212): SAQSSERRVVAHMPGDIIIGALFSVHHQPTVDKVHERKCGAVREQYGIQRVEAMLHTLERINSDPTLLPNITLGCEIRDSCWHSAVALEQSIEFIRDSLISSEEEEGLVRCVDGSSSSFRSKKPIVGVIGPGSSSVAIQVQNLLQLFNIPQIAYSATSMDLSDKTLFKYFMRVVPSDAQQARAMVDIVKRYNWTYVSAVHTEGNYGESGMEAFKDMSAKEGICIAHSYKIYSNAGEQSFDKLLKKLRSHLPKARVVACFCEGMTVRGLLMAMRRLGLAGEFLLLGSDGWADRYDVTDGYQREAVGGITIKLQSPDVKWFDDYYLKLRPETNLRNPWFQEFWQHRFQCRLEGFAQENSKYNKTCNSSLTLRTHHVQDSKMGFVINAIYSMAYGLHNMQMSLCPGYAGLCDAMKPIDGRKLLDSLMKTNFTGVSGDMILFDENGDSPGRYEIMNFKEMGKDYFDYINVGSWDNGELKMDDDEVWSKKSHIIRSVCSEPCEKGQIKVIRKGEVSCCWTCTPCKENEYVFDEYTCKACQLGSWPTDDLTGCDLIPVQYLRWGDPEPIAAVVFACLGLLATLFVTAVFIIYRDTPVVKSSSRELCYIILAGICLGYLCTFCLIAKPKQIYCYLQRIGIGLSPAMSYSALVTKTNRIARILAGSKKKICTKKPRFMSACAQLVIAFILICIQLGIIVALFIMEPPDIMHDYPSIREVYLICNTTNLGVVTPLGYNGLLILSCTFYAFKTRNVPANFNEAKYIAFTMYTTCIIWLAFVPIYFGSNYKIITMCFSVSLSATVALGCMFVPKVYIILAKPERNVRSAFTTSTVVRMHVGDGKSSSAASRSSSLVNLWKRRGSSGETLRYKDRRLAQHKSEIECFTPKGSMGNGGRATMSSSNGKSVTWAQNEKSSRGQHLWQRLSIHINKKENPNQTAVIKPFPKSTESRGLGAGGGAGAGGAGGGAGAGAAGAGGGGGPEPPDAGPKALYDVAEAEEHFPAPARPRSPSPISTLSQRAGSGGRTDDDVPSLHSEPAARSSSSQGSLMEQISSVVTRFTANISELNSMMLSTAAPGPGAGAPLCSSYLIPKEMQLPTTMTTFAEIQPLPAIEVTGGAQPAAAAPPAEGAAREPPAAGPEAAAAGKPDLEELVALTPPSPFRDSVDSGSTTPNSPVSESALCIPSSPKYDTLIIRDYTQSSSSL

| Compound | inhibition at 10 µM |
| --- | --- |
| CC(C)CN(Cc1cccc(-c2ccc3ncnc(N4CCOCC4)c3c2)c1)C(=O)c1cnccn1 [Example 13, pyrazine-2-carboxylic acid isobutyl-[3-(4-morpholin-4-yl-quinazolin-6-yl)-benzyl]-amide] | 36% |
| Cc1ccc(C(=O)N(Cc2cccc(-c3ccc4ncnc(N5CCOCC5)c4c3)c2)CC(C)C)cc1 [Example 22, N-isobutyl-4-methyl-N-[3-(4-morpholin-4-yl-quinazolin-6-yl)-benzyl]-benzamide] | 32% |
| CC(C)CN(Cc1cccc(-c2ccc3ncnc(N4CCOCC4)c3c2)c1)C(=O)c1cccs1 [Example 29, thiophene-2-carboxylic acid isobutyl-[3-(4-morpholin-4-yl-quinazolin-6-yl)-benzyl]-amide] | 46% |
| CC(C)CN(Cc1cccc(-c2ccc3ncnc(N4CCOCC4)c3c2)c1)C(=O)CN(C)C [Example 31, 2-dimethylamino-N-isobutyl-N-[3-(4-morpholin-4-yl-quinazolin-6-yl)-benzyl]-acetamide] | 32% |
| CC(C)Nc1ncnc2ccc(-c3cccc(CN(Cc4ccccc4)C(=O)c4ccccc4)c3)cc12 [Example 36, N-benzyl-N-[3-(4-isopropylamino-quinazolin-6-yl)-benzyl]-benzamide] | 42% |
| CC(C)Nc1ncnc2ccc(-c3cccc(CN(Cc4ccccc4)C(=O)c4ccc(C#N)cc4)c3)cc12 [Example 44, N-benzyl-4-cyano-N-[3-(4-isopropylamino-quinazolin-6-yl)-benzyl]-benzamide] | 37% |
| CC(C)Nc1ncnc2ccc(-c3cccc(CN(Cc4ccccc4)C(=O)c4cnccn4)c3)cc12 [Example 45, pyrazine-2-carboxylic acid benzyl-[3-(4-isopropylamino-quinazolin-6-yl)-benzyl]-amide] | 48% |
| CC(C)Nc1ncnc2ccc(-c3cccc(CN(Cc4ccccc4)C(=O)c4ccsc4)c3)cc12 [Example 50, thiophene-3-carboxylic acid benzyl-[3-(4-isopropylamino-quinazolin-6-yl)-benzyl]-amide] | 30% |
| CC(C)Nc1ncnc2ccc(-c3cccc(CN(Cc4ccccc4)C(=O)CC#N)c3)cc12 [Example 53, N-benzyl-2-cyano-N-[3-(4-isopropylamino-quinazolin-6-yl)-benzyl]-acetamide] | 38% |
| Cc1ccc(C(=O)N(Cc2ccccc2)Cc2cccc(-c3ccc4ncnc(NC(C)C)c4c3)c2)cc1 [Example 54, N-benzyl-N-[3-(4-isopropylamino-quinazolin-6-yl)-benzyl]-4-methyl-benzamide] | 47% |
| CCN(CC)c1ncnc2ccc(-c3cccc(CN(C)C(=O)C=Cc4ccccc4)c3)cc12 [Example 62, N-[3-(4-diethylamino-quinazolin-6-yl)-benzyl]-N-methyl-3-phenyl-acrylamide] | 43% |
| CCN(CC)c1ncnc2ccc(-c3cccc(CN(C)C(=O)Cc4ccccn4)c3)cc12 [Example 68, N-[3-(4-diethylamino-quinazolin-6-yl)-benzyl]-N-methyl-2-pyridin-2-yl-acetamide] | 30% |
| CCN(CC)c1ncnc2ccc(-c3cccc(CN(C)C(=O)c4cccc(C#N)c4)c3)cc12 [Example 69, 3-cyano-N-[3-(4-diethylamino-quinazolin-6-yl)-benzyl]-N-methyl-benzamide] | 38% |
| CCN(CC)c1ncnc2ccc(-c3cccc(CN(C)C(=O)c4ccsc4)c3)cc12 [Example 70, thiophene-3-carboxylic acid [3-(4-diethylamino-quinazolin-6-yl)-benzyl]-methyl-amide] | 34% |
| CCN(CC)c1ncnc2ccc(-c3cccc(CN(C)C(=O)c4ccc(C)cc4)c3)cc12 [Example 75, N-[3-(4-diethylamino-quinazolin-6-yl)-benzyl]-4,N-dimethyl-benzamide] | 32% |
| CCCN(Cc1cccc(-c2ccc3ncnc(Nc4ccccc4)c3c2)c1)C(=O)c1ccccc1 [Example 89, N-[3-(4-phenylamino-quinazolin-6-yl)-benzyl]-N-propyl-benzamide] | 52% |
| CCCN(Cc1cccc(-c2ccc3ncnc(Nc4ccccc4)c3c2)c1)C(=O)COc1ccccc1 [Example 90, 2-phenoxy-N-[3-(4-phenylamino-quinazolin-6-yl)-benzyl]-N-propyl-acetamide] | 44% |
| CCCN(Cc1cccc(-c2ccc3ncnc(Nc4ccccc4)c3c2)c1)C(=O)c1ccc(C)cc1 [Example 91, 4-methyl-N-[3-(4-phenylamino-quinazolin-6-yl)-benzyl]-N-propyl-benzamide] | 54% |
| CCCN(Cc1cccc(-c2ccc3ncnc(Nc4ccccc4)c3c2)c1)C(=O)c1ccncc1 [Example 92, N-[3-(4-phenylamino-quinazolin-6-yl)-benzyl]-N-propyl-isonicotinamide] | 74% |
| CCCN(Cc1cccc(-c2ccc3ncnc(Nc4ccccc4)c3c2)c1)C(=O)c1ccc(C(F)(F)F)cc1F [Example 93, 2-fluoro-N-[3-(4-phenylamino-quinazolin-6-yl)-benzyl]-N-propyl-4-trifluoromethyl-benzamide] | 38% |
| CCCN(Cc1cccc(-c2ccc3ncnc(Nc4ccccc4)c3c2)c1)C(=O)c1ccc(OC)cc1 [Example 94, 4-methoxy-N-[3-(4-phenylamino-quinazolin-6-yl)-benzyl]-N-propyl-benzamide] | 75% |
| CCCN(Cc1cccc(-c2ccc3ncnc(Nc4ccccc4)c3c2)c1)C(=O)c1ccccn1 [Example 95, pyridine-2-carboxylic acid [3-(4-phenylamino-quinazolin-6-yl)-benzyl]-propyl-amide] | 61% |
| CCCN(Cc1cccc(-c2ccc3ncnc(Nc4ccccc4)c3c2)c1)C(=O)c1cc2ccccc2cn1 [Example 100, isoquinoline-3-carboxylic acid [3-(4-phenylamino-quinazolin-6-yl)-benzyl]-propyl-amide] | 36% |
| CCCN(Cc1cccc(-c2ccc3ncnc(Nc4ccccc4)c3c2)c1)C(=O)c1cnccn1 [Example 104, pyrazine-2-carboxylic acid [3-(4-phenylamino-quinazolin-6-yl)-benzyl]-propyl-amide] | 48% |
| CCCN(Cc1cccc(-c2ccc3ncnc(Nc4ccccc4)c3c2)c1)C(=O)Cc1ccccn1 [Example 106, N-[3-(4-phenylamino-quinazolin-6-yl)-benzyl]-N-propyl-2-pyridin-2-yl-acetamide] | 39% |
| CCCN(Cc1cccc(-c2ccc3ncnc(Nc4ccccc4)c3c2)c1)C(=O)c1ccsc1 [Example 108, thiophene-3-carboxylic acid [3-(4-phenylamino-quinazolin-6-yl)-benzyl]-propyl-amide] | 31% |
| CCCN(Cc1cccc(-c2ccc3ncnc(Nc4ccccc4)c3c2)c1)C(=O)c1sccc1C [Example 110, 3-methyl-thiophene-2-carboxylic acid [3-(4-phenylamino-quinazolin-6-yl)-benzyl]-propyl-amide] | 43% |
| CCCN(Cc1cccc(-c2ccc3ncnc(Nc4ccccc4)c3c2)c1)C(=O)c1ccc(O)nc1 [Example 111, 6-hydroxy-N-[3-(4-phenylamino-quinazolin-6-yl)-benzyl]-N-propyl-nicotinamide] | 46% |
